From PMC5761724 (Journal of medicinal chemistry, 2017) come the findings set out here.

Series [1] has as its target Rpn11 (Homo sapiens, UniProt O00487). Put plainly: Rpn11 fluorescence polarization deubiquitination assay. The class given is biochemical. (In fluorescence polarisation assays a small probe gives low polarisation when free and higher when bound to something large.)
Series [2] is described as follows: Cytotoxicity assay. The following applies: human, HCT 116 cells. The class given is cell-based.
Series [3] addresses BRISC complex (Homo sapiens, UniProt P46736). Put plainly: BRISC activity assay. The following applies: Figure S1. Type of series: biochemical.
Series [4] relates to Ub^G76V-GFP Hela cells (proteasome activity). Put plainly: Ub^G76V-GFP degradation assay. The class given is cell-based. The following applies: Homo sapiens, read-out: Ub^G76VGFP Hela Cell IC50.
Series [5] concerns the target Csn5 (Homo sapiens, UniProt Q92905). Put plainly: CSN5 activity assay. The class given is biochemical.
The target in series [6] is T1, AMSH (Homo sapiens, UniProt O95630).
T1 sequence (O95630 1-424): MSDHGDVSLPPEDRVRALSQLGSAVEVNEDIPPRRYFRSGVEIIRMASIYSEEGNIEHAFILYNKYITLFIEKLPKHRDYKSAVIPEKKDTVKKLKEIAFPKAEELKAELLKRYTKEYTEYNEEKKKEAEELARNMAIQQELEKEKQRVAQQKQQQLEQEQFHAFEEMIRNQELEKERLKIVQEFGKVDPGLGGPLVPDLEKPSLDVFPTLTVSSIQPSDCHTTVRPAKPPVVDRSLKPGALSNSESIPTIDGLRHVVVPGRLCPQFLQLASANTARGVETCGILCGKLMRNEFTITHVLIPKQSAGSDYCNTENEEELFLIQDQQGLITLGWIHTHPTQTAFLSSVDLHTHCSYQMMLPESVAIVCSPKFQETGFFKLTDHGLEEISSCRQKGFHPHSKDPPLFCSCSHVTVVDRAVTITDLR
Put plainly: AMSH activity assay. The class given is biochemical.

The mark [7] stands for this setting: HCT 116 Cytotoxicity IC50, Table 2.

A word on the IC50: it is the concentration that inhibits the measured activity by half. As to `Sc1cccc2cccnc12` [8TQ, 8-thioquinoline], the “inhibition of Rpn11 in MBP library screen” value in series [1] (fragment concentration of 200 μM) is listed as “essentially complete inhibition”. Also, the ligand efficiency in series [1] (from Rpn11 IC50) turned out to be 0.69. This molecule also gave a 50% inhibitory concentration (IC50) at 72 h in series [2] (HCT 116 Cytotoxicity, Table 1) of 1.3 µM. Further, the “inhibition of BRISC” value in series [3] is recorded as “significant inhibition”.
With `Sc1cccc2ccccc12` [Compound 2], the 50% inhibitory concentration (IC50) at 72 h in series [2] (HCT 116 Cytotoxicity, Table 1) was more than 100 µM.
On the same count and under the same terms, the figure for `Cc1cccc2cccnc12` [Compound 3] is more than 100 µM; for `CSc1cccc2cccnc12` [Compound 6, 8-(Methylthio)quinoline] it is more than 100 µM; for `Sc1cccc2ncccc12` [Compound 7c, Quinoline-5-thiol] it is more than 100 µM.
For `Sc1ccnc2cccnc12` [Compound 8e, 1,5-Naphthyridine-4-thiol], in series [1], the “fold weaker Rpn11 activity compared to 8TQ” value is recorded as ~ 6 fold.
Take `Cc1ccc2cccc(S)c2n1` [Compound 9c, 2-Methylquinoline-8-thiol]: in series [2] (setting [7]), the IC50 at 72 h is more than 50 µM.
In turn, `Cc1ccnc2c(S)cccc12` [Compound 11c, 4-Methylquinoline-8-thiol] gave an IC50 at 72 h in series [2] (setting [7]) of more than 10 µM.
As to `O=C(NCCc1nccs1)c1cnc2c(O)cccc2c1` [Compound 47, 8-Hydroxy-N-(2-(thiazol-2-yl)ethyl)quinoline-3-carboxamide], the IC50 in series [4] was more than 100 µM.
`CSc1cccc2cc(C(=O)NCCc3nccs3)cnc12` [Compound 48, 8-(Methylthio)-N-(2-(thiazol-2-yl)ethyl)quinoline-3-carboxamide]: the IC50 in series [4] was more than 100 µM.
Turning to `O=C(NCCc1nccs1)c1cnc2c(S)ccnc2c1` [Compound 50f, 8-Mercapto-N-(2-(thiazol-2-yl)ethyl)-1,5-naphthyridine-3-carboxamide], the half-maximal inhibitory concentration (IC50) in series [1] (Rpn11 IC50) is approximately 82 µM; in series [1] (Rpn11 IC50, Table 5, control compounds), 82 ± 14 µM; in series [5] it was more than 100 µM; in series [6], more than 100 µM; in series [4], more than 100 µM.
